According to ChEMBL document CHEMBL1121760, “Methotrexate analogues. 14. Synthesis of new gamma-substituted derivatives as dihydrofolate reductase inhibitors and potential anticancer agents” (1981):

Key:
L1210 = assay: Growth inhibitory activity against L1210 mouse leukemia cell line; type: functional; details: read-out: ID50 (the source's name)
[1] = target: Dihydrofolate reductase (Lactobacillus casei) (UniProt P00381); details: Lacticaseibacillus casei
Description: Compound was tested for inhibition of Lactobacillus casei dihydrofolate reductase using competitive [3H]MTX binding assay

[2] = target: Dihydrofolate reductase (Lactobacillus casei) (UniProt P00381); details: Lacticaseibacillus casei; remark: listed apart in the source
Description: Compound was tested for inhibition of Lactobacillus casei dihydrofolate reductase using spectrophotometric assay at 340 nm

[3] = target: T1, Dihydrofolate reductase (Mus musculus) (UniProt P00375); details: L1210
T1 sequence (whole entry): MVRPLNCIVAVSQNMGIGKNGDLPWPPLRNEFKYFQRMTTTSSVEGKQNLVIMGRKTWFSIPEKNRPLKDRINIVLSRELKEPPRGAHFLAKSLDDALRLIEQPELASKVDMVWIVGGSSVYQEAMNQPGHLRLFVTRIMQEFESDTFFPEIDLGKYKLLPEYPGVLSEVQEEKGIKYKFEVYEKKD
Description: Compound was tested for inhibition of L1210 dihydrofolate reductase by competitive [3H]MTX binding assay in L1210 mouse leukemia cell lines

Dihydrofolate reductase (Lactobacillus casei), sequence (P00381 whole entry): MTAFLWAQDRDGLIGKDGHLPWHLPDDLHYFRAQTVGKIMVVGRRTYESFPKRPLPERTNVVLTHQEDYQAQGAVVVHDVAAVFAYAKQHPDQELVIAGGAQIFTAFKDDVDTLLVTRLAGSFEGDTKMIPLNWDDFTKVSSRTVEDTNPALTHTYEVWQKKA

Compound	IC50 (L1210)	ID50 [1]	ID50 [2]	ID50 [3]
CN(Cc1cnc2nc(N)nc(N)c2n1)c1ccc(C(=O)N[C@@H](CCC(=O)O)C(=O)O)cc1 [METHOTREXATE]	0.01 µM			
CCCCNC(=O)CCC(NC(=O)c1ccc(N(C)Cc2cnc3nc(N)nc(N)c3n2)cc1)C(=O)O (stereo not given)	0.09 µM	0.036 µM	0.053 µM	0.0033 µM
CN(Cc1cnc2nc(N)nc(N)c2n1)c1ccc(C(=O)NC(CCC(=O)NN)C(=O)OC(C)(C)C)cc1 (stereo not given)	11 µM	2.2 µM	0.17 µM	
CN(Cc1cnc2nc(N)nc(N)c2n1)c1ccc(C(=O)NC(CCC(=O)O)C(=O)OC(C)(C)C)cc1 (stereo not given)	5.2 µM	0.21 µM	0.036 µM	0.035 µM
CN(Cc1cnc2nc(N)nc(N)c2n1)c1ccc(C(=O)NC(CCC(=O)NCc2ccccc2)C(=O)O)cc1 (stereo not given)	0.03 µM			
COC(=O)CCC(NC(=O)c1ccc(N(C)Cc2cnc3nc(N)nc(N)c3n2)cc1)C(=O)OC(C)(C)C (stereo not given)	9.7 µM	2.2 µM	0.2 µM	0.019 µM
COC(=O)C(CCC(=O)OC(C)(C)C)NC(=O)c1ccc(N(C)Cc2cnc3nc(N)nc(N)c3n2)cc1 (stereo not given)	4.9 µM	3.9 µM	0.33 µM	0.011 µM
CCCCNC(=O)CCC(NC(=O)c1ccc(N(C)Cc2cnc3nc(N)nc(N)c3n2)cc1)C(=O)OCc1ccccc1 (stereo not given)		0.25 µM		
CN(Cc1cnc2nc(N)nc(N)c2n1)c1ccc(C(=O)NC(CCC(=O)OC(C)(C)C)C(=O)O)cc1 (stereo not given)	0.02 µM	0.012 µM	0.025 µM	0.0029 µM
CN(Cc1cnc2nc(N)nc(N)c2n1)c1ccc(C(=O)NC(CCC(=O)NN)C(=O)O)cc1 (stereo not given)	0.02 µM	0.013 µM	0.0021 µM	0.012 µM
